The source made the active and inactive calls. The rule behind the calls is not given here.
Legend:
[1] = Oral bioavailability in rat; format: ADME, organism-based; details: in vivo
[2] = test system: Influenza A virus (A/Anhui/1/2005(H5N1)); assay: Inhibition of Influenza A virus (A/Anhui/1/2005(H5N1) Neuraminidase using MUNANA as substrate at 10 uM preincubated for 5 to 15 mins followed by substrate addition and measured after 30 mins by fluorescence spectrophotometric method; details: time 35-45 min
[3] = test system: Influenza A virus (A/Anhui/1/2005(H5N1)); assay: Inhibition of Influenza A virus (A/Anhui/1/2005(H5N1) Neuraminidase using MUNANA as substrate at 100 uM preincubated for 5 to 15 mins followed by substrate addition and measured after 30 mins by fluorescence spectrophotometric method; details: time 35-45 min
[4] = human, plasma
[5] = Tmax in Sprague-Dawley rat at 50 mg/kg, po by LC-MS/MS analysis; format: ADME, organism-based; details: in vivo
[6] = Inhibition of Influenza A virus (A/Babol/36/2005 (H3N2)) Neuraminidase using MUNANA as substrate preincubated for 5 to 15 mins followed by substrate addition and measured after 30 mins by fluorescence spectrophotometric method
in vitro [7] = details: human, plasma
in vitro [8] = details: rat, liver microsomes
[9] = Inhibition of Influenza A virus (A/Anhui/1/2005(H5N1) Neuraminidase using MUNANA as substrate preincubated for 5 to 15 mins followed by substrate addition and measured after 30 mins by fluorescence spectrophotometric method
in vitro [10] = details: human, liver microsomes
[11] = Oral bioavailability in Sprague-Dawley rat at 50 mg/kg measured for 24 hrs by LC-MS/MS analysis; format: ADME, organism-based; details: in vivo
[12] = Inhibition of Influenza A virus (A/California/04/2009 (H1N1)) Neuraminidase using MUNANA as substrate preincubated for 5 to 15 mins followed by substrate addition and measured after 30 mins by fluorescence spectrophotometric method
in vitro [13] = details: rat, liver microsomes; remark: listed apart in the source
in vitro [14] = details: mouse, liver microsomes
[15] = AUC in Sprague-Dawley rat at 50 mg/kg, po measured for 24 hrs by LC-MS/MS analysis; format: ADME, organism-based; parameters: time 24 hrs, dose 50 mg/kg; details: in vivo
[16] = Half life in Sprague-Dawley rat at 50 mg/kg, po measured for 24 hrs by LC-MS/MS analysis; format: ADME, organism-based; details: in vivo
[17] = Bioavailability in Sprague-Dawley rat at 10 mg/kg, iv measured for 24 hrs by LC-MS/MS analysis; format: ADME, organism-based; details: in vivo
in vitro [18] = details: human, liver microsomes; remark: listed apart in the source
in vitro [19] = details: human, plasma; remark: listed apart in the source
in vitro [20] = details: mouse, liver microsomes; remark: listed apart in the source
[21] = human, plasma, 2 h
[22] = Cmax in Sprague-Dawley rat at 50 mg/kg, po measured for 24 hrs by LC-MS/MS analysis; format: ADME, organism-based; parameters: route oral, dose 50 mg/kg, time 24 hrs; details: in vivo
in vitro [23] = details: human, plasma; remark: listed apart in the source
[24] = AUC in Sprague-Dawley rat at 10 mg/kg, iv measured for 24 hrs by LC-MS/MS analysis; format: ADME, organism-based; parameters: dose 10 mg/kg, time 24 hrs; details: in vivo
in vivo = details: Sprague-Dawley, rat, iv, 10 mg/kg
[25] = Cmax in Sprague-Dawley rat at 10 mg/kg, po measured for 24 hrs by LC-MS/MS analysis; format: ADME, organism-based; parameters: route oral, dose 10 mg/kg, time 24 hrs; details: in vivo
[26] = Tmax in Sprague-Dawley rat at 10 mg/kg, po by LC-MS/MS analysis; format: ADME, organism-based; details: in vivo
[27] = AUC in Sprague-Dawley rat at 10 mg/kg, po measured for 24 hrs by LC-MS/MS analysis; format: ADME, organism-based; parameters: time 24 hrs, dose 10 mg/kg; details: in vivo
[28] = Oral bioavailability in ferret; format: ADME, organism-based, Mustela putorius furo; details: in vivo

CCC(CC)O[C@@H]1C=C(C(=O)O)C[C@H](NC(=N)N)[C@H]1NC(C)=O
bioavailability [1]: 2.1%

CCC(CC)O[C@@H]1C=C(C(=O)O)C[C@H](NC(=S)NCc2cccc(F)c2)[C@H]1NC(C)=O
inhibition [2]: inactive | inhibition [3]: 28.1%

CCC(CC)O[C@@H]1C=C(C(=O)O)C[C@H](NC(=S)N(C(C)C)C(C)C)[C@H]1NC(C)=O
inhibition [2]: 20% | inhibition [3]: 80%

CCC(CC)O[C@@H]1C=C(C(=O)O)C[C@H](NC(N)=O)[C@H]1NC(C)=O
Stabilty [4]: 100% | Tmax [5]: 0.75 h | IC50 [6]: 169 nM | remaining at 0.5 h (in vitro [7]): 99.1% | remaining at 1 h (in vitro [8]): 85.5% | IC50 ([9]; read-out: IC50): 254 nM | half-life at 1 h (in vitro [10]): > 2.42 h | bioavailability [11]: 8.8% | IC50 [12]: 8700 nM | half-life at 1 h (in vitro [13]): > 2.42 h | half-life at 1 h (in vitro [14]): > 2.42 h | AUC at 24 h [15]: 10300 ng·h/mL | half-life [16]: 9.95 h | F [17]: 100% | remaining at 1 h (in vitro [18]): 99.1% | remaining at 10 min (in vitro [19]): 101% | remaining at 1 h (in vitro [20]): 100% | Stabilty [21]: 122.6% | Cmax [22]: 3670 ng/mL | remaining at 1 h (in vitro [23]): 102% | AUC at 24 h [24]: 23200 ng·h/mL | half-life at 24 h (in vivo): 2.07 h

CCC(CC)O[C@@H]1C=C(C(=O)O)C[C@H](NC(=O)N2CCCCC2)[C@H]1NC(C)=O
inhibition [2]: 25.6% | inhibition [3]: 56.4%

CCC(CC)O[C@@H]1C=C(C(=O)O)C[C@H](N)[C@H]1NC(C)=O [OSELTAMIVIR CARBOXYLATE]
IC50 [6]: 41.7 nM | Cmax [25]: 30 ng/mL | IC50 [9]: 210 nM | Tmax [26]: 4 h | IC50 [12]: 2500 nM | F [17]: 100% | AUC at 24 h [27]: 300 ng·h/mL | AUC at 24 h [24]: 8400 ng·h/mL | half-life at 24 h (in vivo): 1.6 h

CCC(CC)O[C@@H]1C=C(C(=O)O)C[C@H](NC(=S)Nc2ccc(C)c(C)c2)[C@H]1NC(C)=O
inhibition [2]: 15.3% | inhibition [3]: 52.4%

CCC(CC)O[C@@H]1C=C(C(=O)O)C[C@H](NC(=S)NCc2ccc(Br)cc2)[C@H]1NC(C)=O
inhibition [2]: 17% | inhibition [3]: 59.6%

O=C(O)Cc1ccccc1Nc1c(Cl)cccc1Cl [DICLOFENAC]
half-life at 1 h (in vitro [10]): 0.195 h | half-life at 1 h (in vitro [13]): 0.2 h | half-life at 1 h (in vitro [14]): 0.735 h

CC(C)[N+](C)(CCOC(=O)C1c2ccccc2Oc2ccccc21)C(C)C.[Br-] [PROPANTHELINE BROMIDE]
Stabilty [4]: 100% | remaining at 10 min (in vitro [19]): 68.2%

CCC(CC)O[C@@H]1C=C(C(=O)O)C[C@H](NC(=O)Nc2cc(OC)c(OC)c(OC)c2)[C@H]1NC(C)=O
inhibition [2]: inactive | inhibition [3]: 16.4%

CCC(CC)O[C@@H]1C=C(C(=O)O)C[C@H](NC(=O)Nc2cccc([N+](=O)[O-])c2)[C@H]1NC(C)=O
inhibition [2]: 6.5% | inhibition [3]: 36.9%

CCC(CC)O[C@@H]1C=C(C(=O)O)C[C@H](NC(=O)Nc2ccccc2)[C@H]1NC(C)=O
inhibition [2]: 17.6% | inhibition [3]: 32.6%

CCC(CC)[C@H](NC(C)=O)[C@@H]1[C@H](O)[C@@H](C(=O)O)C[C@H]1NC(=N)N [PERAMIVIR ANHYDROUS]
bioavailability [28]: 2.5%

CCC(CC)O[C@@H]1C=C(C(=O)O)C[C@H](NC(=S)Nc2ccccc2)[C@H]1NC(C)=O
inhibition [2]: 16.6% | inhibition [3]: 47.1%

CCC(CC)O[C@@H]1C=C(C(=O)O)C[C@H](NC(=O)Nc2cccc(Br)c2)[C@H]1NC(C)=O
IC50 ([9]; read-out: IC50): 16900 nM

CCC(CC)O[C@@H]1C=C(C(=O)O)C[C@H](NC(=O)NCc2ccc(OC)cc2)[C@H]1NC(C)=O
inhibition [2]: inactive | inhibition [3]: 36.5%

CCC(CC)O[C@@H]1C=C(C(=O)O)C[C@H](NC(=S)NC)[C@H]1NC(C)=O
IC50 ([9]; read-out: IC50): 18600 nM

CCC(CC)O[C@@H]1C=C(C(=O)O)C[C@H](NC(=S)NCc2ccc(F)cc2)[C@H]1NC(C)=O
inhibition [2]: inactive | inhibition [3]: 21%

CCC(CC)O[C@@H]1C=C(C(=O)O)C[C@H](NC(N)=S)[C@H]1NC(C)=O
inhibition [2]: 16.9% | inhibition [3]: 51.3%

CCC(CC)O[C@@H]1C=C(C(=O)O)C[C@H](NC(=S)NC2CC2)[C@H]1NC(C)=O
inhibition [2]: 8.7% | inhibition [3]: 29.2%

CCC(CC)O[C@@H]1C=C(C(=O)O)C[C@H](NC(=O)NC(C)C)[C@H]1NC(C)=O
inhibition [2]: 8.3% | inhibition [3]: 32.3%

CCC(CC)O[C@@H]1C=C(C(=O)O)C[C@H](NC(=O)NCc2ccccc2)[C@H]1NC(C)=O
inhibition [2]: 6.8% | inhibition [3]: 35.1%

CO[C@@H]([C@@H]1OC(C(=O)O)=C[C@H](NC(=N)N)[C@H]1NC(C)=O)[C@H](O)CO
bioavailability [1]: 3.5%

CCC(CC)O[C@@H]1C=C(C(=O)O)C[C@H](NC(=O)N(C(C)C)C(C)C)[C@H]1NC(C)=O
inhibition [2]: 32.3% | inhibition [3]: 63.1%

CCC(CC)O[C@@H]1C=C(C(=O)O)C[C@H](NC(=O)NCc2ccc(C#N)cc2)[C@H]1NC(C)=O
inhibition [2]: inactive | inhibition [3]: 32.5%

CCC(CC)O[C@@H]1C=C(C(=O)O)C[C@H](NC(=O)N(C)C)[C@H]1NC(C)=O
IC50 ([9]; read-out: IC50): 4830 nM

CCC(CC)O[C@@H]1C=C(C(=O)O)C[C@H](NC(=O)NCCc2ccccc2)[C@H]1NC(C)=O
inhibition [2]: inactive | inhibition [3]: 17.7%
